These results are taken from ChEMBL document CHEMBL5463725, “Data for DCP probe BAY-277” (2023).

Assay [1] concerns the target Glutamate receptor ionotropic, kainate 2 (Homo sapiens) (UniProt Q13002). Kind of assay: Inhibition of Glutamate, Kainate at 10.0 µM in the Eurofins Panlabs Safety Screen. The note with it: Rattus norvegicus; Compound concentration 10.0 uM.
The target in assay [2] is T1, Muscarinic acetylcholine receptor M4 (Homo sapiens) (UniProt P08173).
T1 sequence (whole entry): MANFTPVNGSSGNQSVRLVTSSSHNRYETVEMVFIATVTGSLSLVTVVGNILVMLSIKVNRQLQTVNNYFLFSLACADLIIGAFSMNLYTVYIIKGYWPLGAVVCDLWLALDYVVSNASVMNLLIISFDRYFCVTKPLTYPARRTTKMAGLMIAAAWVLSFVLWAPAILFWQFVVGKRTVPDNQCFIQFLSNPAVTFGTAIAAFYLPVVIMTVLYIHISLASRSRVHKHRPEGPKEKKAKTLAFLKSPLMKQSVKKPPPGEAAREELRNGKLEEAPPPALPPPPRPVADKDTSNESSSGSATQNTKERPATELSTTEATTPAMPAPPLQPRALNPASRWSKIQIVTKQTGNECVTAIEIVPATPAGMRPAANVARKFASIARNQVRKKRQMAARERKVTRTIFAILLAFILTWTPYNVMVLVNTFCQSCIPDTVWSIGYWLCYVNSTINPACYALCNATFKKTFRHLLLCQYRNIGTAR
The note with it: Compound concentration 10.0 uM.

Assay [3] has as its target Progesterone receptor (Homo sapiens) (UniProt P06401). The assay can be described thus: Inhibition of Progesterone PR-B at 10.0 µM in the Eurofins Panlabs Safety Screen. The note with it: Compound concentration 10.0 uM.
In assay [4] the target is 5-hydroxytryptamine receptor 7 (Homo sapiens) (UniProt P34969). Conditions: Compound concentration 10.0 uM.
In assay [5] the target is T2, Alpha-2B adrenergic receptor (Homo sapiens) (UniProt P18089).
T2 sequence (whole entry): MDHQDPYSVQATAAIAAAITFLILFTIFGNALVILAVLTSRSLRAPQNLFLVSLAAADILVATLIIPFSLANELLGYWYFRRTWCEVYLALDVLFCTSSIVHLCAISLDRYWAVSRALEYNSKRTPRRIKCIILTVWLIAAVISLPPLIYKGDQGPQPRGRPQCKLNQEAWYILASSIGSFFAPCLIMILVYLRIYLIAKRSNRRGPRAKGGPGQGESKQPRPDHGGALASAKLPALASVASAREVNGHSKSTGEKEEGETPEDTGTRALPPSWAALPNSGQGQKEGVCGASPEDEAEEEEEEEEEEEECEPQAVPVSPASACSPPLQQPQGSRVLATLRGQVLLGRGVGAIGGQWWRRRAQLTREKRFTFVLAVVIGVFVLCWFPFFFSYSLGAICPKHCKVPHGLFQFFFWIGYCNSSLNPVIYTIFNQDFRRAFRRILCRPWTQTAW
Kind of assay: Inhibition of Adrenergic alpha2B at 10.0 µM in the Eurofins Panlabs Safety Screen. The note with it: Compound concentration 10.0 uM.

In assay [6] the target is T3, Alpha-2A adrenergic receptor (Homo sapiens) (UniProt P08913).
T3 sequence (whole entry): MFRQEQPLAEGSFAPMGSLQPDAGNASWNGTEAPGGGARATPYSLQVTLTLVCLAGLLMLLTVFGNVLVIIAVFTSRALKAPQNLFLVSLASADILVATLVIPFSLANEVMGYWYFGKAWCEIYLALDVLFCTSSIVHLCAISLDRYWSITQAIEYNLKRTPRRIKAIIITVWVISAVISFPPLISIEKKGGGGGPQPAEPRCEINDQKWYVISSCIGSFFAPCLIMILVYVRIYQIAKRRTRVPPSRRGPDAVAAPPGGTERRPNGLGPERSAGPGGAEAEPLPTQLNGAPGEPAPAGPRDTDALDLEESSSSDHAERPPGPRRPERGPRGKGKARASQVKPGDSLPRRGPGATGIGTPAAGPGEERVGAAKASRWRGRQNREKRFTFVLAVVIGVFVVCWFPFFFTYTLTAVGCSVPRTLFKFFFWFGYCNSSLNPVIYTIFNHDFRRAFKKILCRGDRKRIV
Kind of assay: Inhibition of Adrenergic alpha2A at 10.0 µM in the Eurofins Panlabs Safety Screen. The note with it: Compound concentration 10.0 uM.

For assay [7], the target named is Tyrosine-protein kinase HCK (Homo sapiens) (UniProt P08631). The assay can be described thus: Inhibition of Hck(h) at 10.0 µM in the Eurofins Kinase panel. Conditions: Compound concentration 10.0 uM.
Assay [8] addresses Purinergic P2Y (Rattus norvegicus) (UniProt O35811+Q9EPX4+P49651+Q63371+P41232+O35881+Q6GUG4). The assay can be described thus: Inhibition of Purinergic P2Y, non-selective at 10.0 µM in the Eurofins Panlabs Safety Screen. Format: protein assay. Conditions: Compound concentration 10.0 uM.
Assay [9] deals with Hepatocyte growth factor receptor (Homo sapiens) (UniProt P08581). The assay can be described thus: Inhibition of Met(h) at 10.0 µM in the Eurofins Kinase panel. Conditions: Compound concentration 10.0 uM.
Assay [10] addresses GABA-A receptor; anion channel (Rattus norvegicus) (UniProt O09028+P15431+P18506+P18508+P19969+P20236+P23574+P23576+P28471+P28473+P30191+P62813+P63079+P63138+Q91ZM7+Q9ES14). Kind of assay: Inhibition of GABAA, Chloride Channel, TBOB at 10.0 µM in the Eurofins Panlabs Safety Screen. In kind it is protein-complex assay. Conditions: Compound concentration 10.0 uM.
The target in assay [11] is D(2) dopamine receptor (Homo sapiens) (UniProt P14416). Conditions: Compound concentration 10.0 uM.
For assay [12], the target named is Delta-type opioid receptor (Homo sapiens) (UniProt P41143). The assay can be described thus: Inhibition of Opiate delta1 (OP1, DOP) at 10.0 µM in the Eurofins Panlabs Safety Screen. Conditions: Compound concentration 10.0 uM.
In assay [13] the target is T4, Alpha-2C adrenergic receptor (Homo sapiens) (UniProt P18825).
T4 sequence (whole entry): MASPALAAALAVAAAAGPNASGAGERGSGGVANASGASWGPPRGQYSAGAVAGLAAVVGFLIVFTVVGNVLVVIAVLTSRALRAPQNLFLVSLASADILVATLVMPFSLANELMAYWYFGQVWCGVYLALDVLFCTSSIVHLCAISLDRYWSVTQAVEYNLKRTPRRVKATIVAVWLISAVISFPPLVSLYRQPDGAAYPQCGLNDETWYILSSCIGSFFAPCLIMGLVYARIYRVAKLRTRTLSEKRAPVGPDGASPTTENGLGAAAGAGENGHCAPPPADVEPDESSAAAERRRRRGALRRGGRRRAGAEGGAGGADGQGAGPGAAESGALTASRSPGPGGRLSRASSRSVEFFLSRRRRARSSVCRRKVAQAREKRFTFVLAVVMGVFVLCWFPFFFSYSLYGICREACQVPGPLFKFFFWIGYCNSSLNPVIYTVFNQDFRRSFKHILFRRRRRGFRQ
The assay can be described thus: Inhibition of Adrenergic alpha2C at 10.0 µM in the Eurofins Panlabs Safety Screen. Conditions: Compound concentration 10.0 uM.

Assay [14] addresses Histamine H2 receptor (Homo sapiens) (UniProt P25021). The assay can be described thus: Inhibition of Histamine H2 at 10.0 µM in the Eurofins Panlabs Safety Screen. Conditions: Compound concentration 10.0 uM.
For assay [15], the target named is Serine/threonine-protein kinase pim-2 (Homo sapiens) (UniProt Q9P1W9). The assay can be described thus: Inhibition of Pim-2(h) at 10.0 µM in the Eurofins Kinase panel. The note with it: Compound concentration 10.0 uM.
The target of assay [16] is B1 bradykinin receptor (Homo sapiens) (UniProt P46663). Kind of assay: Inhibition of Bradykinin B1 at 10.0 µM in the Eurofins Panlabs Safety Screen. Conditions: Compound concentration 10.0 uM.

Chain of D(2) dopamine receptor (Homo sapiens) (P14416 whole entry): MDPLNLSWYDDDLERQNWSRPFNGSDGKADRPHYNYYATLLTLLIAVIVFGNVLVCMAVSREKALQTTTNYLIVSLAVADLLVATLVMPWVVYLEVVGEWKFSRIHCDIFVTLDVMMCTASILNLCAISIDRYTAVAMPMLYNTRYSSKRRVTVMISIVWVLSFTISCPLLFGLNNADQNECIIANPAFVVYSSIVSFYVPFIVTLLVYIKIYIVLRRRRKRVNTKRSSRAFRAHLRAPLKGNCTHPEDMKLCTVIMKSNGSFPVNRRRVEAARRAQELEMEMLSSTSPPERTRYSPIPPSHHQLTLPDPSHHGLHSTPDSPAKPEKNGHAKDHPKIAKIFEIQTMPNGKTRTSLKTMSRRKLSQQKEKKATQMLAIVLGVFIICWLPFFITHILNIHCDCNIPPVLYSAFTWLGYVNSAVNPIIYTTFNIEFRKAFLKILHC
Chain of 5-hydroxytryptamine receptor 7 (Homo sapiens) (P34969 whole entry): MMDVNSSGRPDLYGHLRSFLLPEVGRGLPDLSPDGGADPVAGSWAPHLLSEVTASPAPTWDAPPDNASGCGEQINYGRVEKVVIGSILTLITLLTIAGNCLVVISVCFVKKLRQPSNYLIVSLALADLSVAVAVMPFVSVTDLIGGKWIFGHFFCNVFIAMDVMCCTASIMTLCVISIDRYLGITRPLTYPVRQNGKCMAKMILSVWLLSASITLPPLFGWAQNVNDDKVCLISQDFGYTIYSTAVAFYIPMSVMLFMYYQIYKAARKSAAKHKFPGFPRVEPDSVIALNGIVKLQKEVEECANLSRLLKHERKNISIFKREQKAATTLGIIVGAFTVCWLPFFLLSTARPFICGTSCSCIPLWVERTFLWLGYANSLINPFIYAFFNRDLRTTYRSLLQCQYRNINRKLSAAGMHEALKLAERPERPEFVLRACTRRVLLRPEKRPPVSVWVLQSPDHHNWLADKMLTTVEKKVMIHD
Chain of Tyrosine-protein kinase HCK (Homo sapiens) (P08631 2-526 limits assumed): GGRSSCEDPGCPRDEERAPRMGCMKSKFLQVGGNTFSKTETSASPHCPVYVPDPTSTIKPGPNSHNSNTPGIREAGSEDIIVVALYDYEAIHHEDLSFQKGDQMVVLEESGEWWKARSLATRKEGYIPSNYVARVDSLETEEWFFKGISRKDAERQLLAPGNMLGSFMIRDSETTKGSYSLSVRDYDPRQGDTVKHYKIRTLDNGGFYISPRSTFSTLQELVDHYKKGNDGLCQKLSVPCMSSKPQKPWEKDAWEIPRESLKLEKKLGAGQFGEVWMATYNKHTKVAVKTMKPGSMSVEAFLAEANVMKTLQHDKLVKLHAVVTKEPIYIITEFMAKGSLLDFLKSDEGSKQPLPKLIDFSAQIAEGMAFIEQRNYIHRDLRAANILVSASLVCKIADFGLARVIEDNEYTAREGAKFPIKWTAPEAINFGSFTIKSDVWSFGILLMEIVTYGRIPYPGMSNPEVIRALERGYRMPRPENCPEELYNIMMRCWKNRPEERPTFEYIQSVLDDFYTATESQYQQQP
Chain of Progesterone receptor (Homo sapiens) (P06401 whole entry): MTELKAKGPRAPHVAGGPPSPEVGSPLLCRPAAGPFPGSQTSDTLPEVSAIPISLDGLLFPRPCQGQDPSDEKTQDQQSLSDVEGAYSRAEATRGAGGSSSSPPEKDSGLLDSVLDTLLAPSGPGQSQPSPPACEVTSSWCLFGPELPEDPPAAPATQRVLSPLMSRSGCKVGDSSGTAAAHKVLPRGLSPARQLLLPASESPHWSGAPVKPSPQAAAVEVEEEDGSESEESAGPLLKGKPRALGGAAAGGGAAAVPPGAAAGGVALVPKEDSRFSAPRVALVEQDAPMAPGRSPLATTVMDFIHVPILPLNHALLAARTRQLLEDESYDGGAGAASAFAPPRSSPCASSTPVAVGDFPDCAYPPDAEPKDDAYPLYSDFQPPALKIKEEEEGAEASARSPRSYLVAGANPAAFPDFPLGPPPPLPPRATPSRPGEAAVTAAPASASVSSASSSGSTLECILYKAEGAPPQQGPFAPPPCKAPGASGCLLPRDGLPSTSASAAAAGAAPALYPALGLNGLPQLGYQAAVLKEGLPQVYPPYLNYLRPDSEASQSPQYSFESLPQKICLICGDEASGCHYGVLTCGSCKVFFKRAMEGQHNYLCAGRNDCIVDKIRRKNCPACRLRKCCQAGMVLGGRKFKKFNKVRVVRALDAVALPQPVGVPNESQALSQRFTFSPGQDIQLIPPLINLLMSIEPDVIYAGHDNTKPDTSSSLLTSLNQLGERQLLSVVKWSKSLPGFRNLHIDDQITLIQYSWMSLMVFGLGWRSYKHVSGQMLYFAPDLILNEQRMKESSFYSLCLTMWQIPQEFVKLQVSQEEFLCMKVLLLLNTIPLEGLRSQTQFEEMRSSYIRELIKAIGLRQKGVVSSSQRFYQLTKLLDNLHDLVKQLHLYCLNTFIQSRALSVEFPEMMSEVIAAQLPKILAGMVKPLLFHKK
Chain of Histamine H2 receptor (Homo sapiens) (P25021 whole entry): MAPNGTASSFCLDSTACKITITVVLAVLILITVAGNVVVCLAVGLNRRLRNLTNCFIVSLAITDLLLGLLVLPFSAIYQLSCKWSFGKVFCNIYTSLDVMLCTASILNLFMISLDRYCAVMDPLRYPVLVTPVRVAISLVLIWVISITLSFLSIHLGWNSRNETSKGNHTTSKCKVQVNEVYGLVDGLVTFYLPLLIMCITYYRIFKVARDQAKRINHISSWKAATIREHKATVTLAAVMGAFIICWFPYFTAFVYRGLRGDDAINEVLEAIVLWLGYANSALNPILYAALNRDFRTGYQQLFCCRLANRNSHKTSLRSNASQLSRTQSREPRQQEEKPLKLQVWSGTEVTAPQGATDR
Chain of Hepatocyte growth factor receptor (Homo sapiens) (P08581 whole entry): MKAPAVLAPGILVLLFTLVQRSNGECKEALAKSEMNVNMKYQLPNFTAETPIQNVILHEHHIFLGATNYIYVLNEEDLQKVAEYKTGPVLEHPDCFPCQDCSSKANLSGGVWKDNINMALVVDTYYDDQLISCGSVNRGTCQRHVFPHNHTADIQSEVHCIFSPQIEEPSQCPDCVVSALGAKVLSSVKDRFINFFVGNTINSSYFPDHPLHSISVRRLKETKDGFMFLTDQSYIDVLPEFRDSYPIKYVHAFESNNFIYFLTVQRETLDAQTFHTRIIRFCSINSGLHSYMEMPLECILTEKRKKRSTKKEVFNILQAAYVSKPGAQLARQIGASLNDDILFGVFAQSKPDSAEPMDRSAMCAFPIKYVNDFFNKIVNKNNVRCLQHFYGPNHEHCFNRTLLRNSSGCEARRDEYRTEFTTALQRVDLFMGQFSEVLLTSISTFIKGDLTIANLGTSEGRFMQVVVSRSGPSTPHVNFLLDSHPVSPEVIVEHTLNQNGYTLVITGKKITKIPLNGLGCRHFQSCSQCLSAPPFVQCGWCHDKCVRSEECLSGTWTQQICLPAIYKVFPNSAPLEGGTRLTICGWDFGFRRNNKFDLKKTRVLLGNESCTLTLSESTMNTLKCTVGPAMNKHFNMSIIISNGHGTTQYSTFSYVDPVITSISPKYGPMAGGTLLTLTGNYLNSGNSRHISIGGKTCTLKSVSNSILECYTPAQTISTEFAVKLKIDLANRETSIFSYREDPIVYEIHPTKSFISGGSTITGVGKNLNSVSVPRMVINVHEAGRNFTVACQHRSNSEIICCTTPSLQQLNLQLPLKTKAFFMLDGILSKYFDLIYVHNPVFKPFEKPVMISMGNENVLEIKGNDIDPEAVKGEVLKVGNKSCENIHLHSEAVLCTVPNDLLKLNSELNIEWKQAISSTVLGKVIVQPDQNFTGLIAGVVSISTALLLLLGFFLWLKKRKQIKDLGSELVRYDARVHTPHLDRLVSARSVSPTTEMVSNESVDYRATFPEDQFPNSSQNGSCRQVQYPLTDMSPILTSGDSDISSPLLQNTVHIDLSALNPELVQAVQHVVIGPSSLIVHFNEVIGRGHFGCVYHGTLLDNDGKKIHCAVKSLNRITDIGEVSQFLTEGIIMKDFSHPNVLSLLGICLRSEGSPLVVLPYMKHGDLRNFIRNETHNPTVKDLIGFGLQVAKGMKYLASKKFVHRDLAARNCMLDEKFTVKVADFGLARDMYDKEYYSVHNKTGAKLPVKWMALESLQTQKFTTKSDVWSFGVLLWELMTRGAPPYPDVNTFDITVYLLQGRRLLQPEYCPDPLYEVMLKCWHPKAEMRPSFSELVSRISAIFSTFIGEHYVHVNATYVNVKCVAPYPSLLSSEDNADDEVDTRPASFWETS
Chain of Serine/threonine-protein kinase pim-2 (Homo sapiens) (Q9P1W9 whole entry, looked up): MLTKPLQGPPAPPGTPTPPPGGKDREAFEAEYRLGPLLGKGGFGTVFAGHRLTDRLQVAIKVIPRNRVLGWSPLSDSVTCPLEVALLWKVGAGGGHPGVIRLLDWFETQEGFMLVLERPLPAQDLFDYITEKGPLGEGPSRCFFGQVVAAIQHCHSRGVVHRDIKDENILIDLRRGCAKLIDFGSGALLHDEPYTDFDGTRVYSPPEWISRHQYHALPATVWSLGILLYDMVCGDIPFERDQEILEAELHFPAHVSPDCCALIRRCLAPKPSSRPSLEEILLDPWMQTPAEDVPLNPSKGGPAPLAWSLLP
Chain of Delta-type opioid receptor (Homo sapiens) (P41143 whole entry): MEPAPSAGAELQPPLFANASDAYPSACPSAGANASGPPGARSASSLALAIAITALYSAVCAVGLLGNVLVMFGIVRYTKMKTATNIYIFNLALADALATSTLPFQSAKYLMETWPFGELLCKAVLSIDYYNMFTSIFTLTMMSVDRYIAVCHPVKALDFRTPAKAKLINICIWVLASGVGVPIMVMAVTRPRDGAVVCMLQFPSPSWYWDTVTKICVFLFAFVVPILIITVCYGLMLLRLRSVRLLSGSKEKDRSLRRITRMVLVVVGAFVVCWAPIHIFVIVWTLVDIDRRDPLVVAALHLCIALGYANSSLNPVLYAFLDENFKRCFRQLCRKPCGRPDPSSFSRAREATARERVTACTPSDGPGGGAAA

As usually defined, the inhibition is the drop in the measured response relative to a control, in per cent. For the compound `O=C1CCC(N2Cc3cc(C4CCN(C(=O)CCCCCN5CCC(c6ccc(Oc7nn8cnnc8c8c7CCCC8)cc6)CC5)CC4)ccc3C2=O)C(=O)N1` (configuration not stated), the inhibition in [1] is -2%; in [2], 83.5%; in assay [3] it was 24%; in [4], 36.8%; in assay [5], 19%; in assay [6] it was 28%. Further, the inhibition is 12.8% in [7]; 4% in [8]; 22.7% in assay [9]; -6% in assay [10]; 20.9% in assay [11]; 0% in assay [12]. Also, the inhibition in assay [13] was found to be 79%; in [14] it was 32%; in assay [15] it was 15.4%; in assay [16] it was 1%.
Consider `O=C1NCCCC1N1Cc2cc(C3CCN(C(=O)CCCCCN4CCC(c5ccc(Oc6nn7cnnc7c7c6CCCC7)cc5)CC4)CC3)ccc2C1=O` (configuration not stated), for which the inhibition is 1% in assay [1]; 76.1% in assay [2]; 19% in [3]; 32.5% in assay [4]; 8% in [5]; 32% in assay [6]. Further, the inhibition was 17.9% in [7]; 12% in [8]; 16.9% in assay [9]; -5% in [10]; 21.7% in assay [11]; 7% in assay [12]. Also, the inhibition in assay [13] was 62%; in [14], 36%; in [15] it was 10.6%; in [16] it was 7%.
